Reference: ChEMBL document CHEMBL3885881, “DrugMatrix”

Species on record: Rattus norvegicus
Assay: DrugMatrix - Regimen: Daily Repeat
Assay type: toxicity, organism-based, Sprague-Dawley
Set-up: regimen Daily Repeat, gender Male, age 6-8 weeks
Conditions: in vivo, po, route oral GAVAGE, vehicle .5 % CMC; for ABSOLUTE BASOPHIL / ABSOLUTE EOSINOPHIL / ABSOLUTE LYMPHOCYTE / ABSOLUTE MONOCYTE / ABSOLUTE SEGMENTED NEUTROPHIL / BASOPHIL / EOSINOPHIL / ERYTHROCYTE COUNT / HEMATOCRIT / HEMOGLOBIN / LEUKOCYTE COUNT / LYMPHOCYTE / MEAN CORPUSCULAR HEMOGLOBIN / MEAN CORPUSCULAR HEMOGLOBIN CONCENTRATION / MEAN CORPUSCULAR VOLUME / MONOCYTE / NEUTROPHIL / NUCLEATED RED BLOOD CELLS / PLATELET COUNT: tissue Blood; for ALANINE AMINOTRANSFERASE / ALBUMIN / ALKALINE PHOSPHATASE / ASPARTATE AMINOTRANSFERASE / BLOOD UREA NITROGEN / CARBON DIOXIDE / CHLORIDE / CHOLESTEROL / CREATINE PHOSPHOKINASE / CREATININE / GLUCOSE / LACTATE DEHYDROGENASE / LIPASE / PHOSPHORUS / POTASSIUM / SODIUM / TOTAL BILIRUBIN / TOTAL PROTEIN / URIC ACID: tissue Plasma
[1] = 0 mg/kg, 72 h, dose level Control, time 3 day
[2] = 0 mg/kg, 120 h, dose level Control, time 5 day
[3] = 10 mg/kg, 72 h, dose level Low, time 3 day

## COc1c(C)c2c(c(O)c1C/C=C(\C)CCC(=O)OCCN1CCOCC1)C(=O)OC2 [MYCOPHENOLATE MOFETIL]
[1]
  ABSOLUTE BASOPHIL: 0 CELLS/uL
  ABSOLUTE EOSINOPHIL: 0 CELLS/uL
  ABSOLUTE LYMPHOCYTE: 12191.17 CELLS/uL
  ABSOLUTE MONOCYTE: 183.17 CELLS/uL
  ABSOLUTE SEGMENTED NEUTROPHIL: 1192.33 CELLS/uL
  BASOPHIL: 0%
  EOSINOPHIL: 0%
  ERYTHROCYTE COUNT: 5.51 x10E6/uL
  HEMATOCRIT: 35.45%
  HEMOGLOBIN: 13.82 G/DL
  LEUKOCYTE COUNT: 13.57 x10E3/uL
  LYMPHOCYTE: 89.83%
  MEAN CORPUSCULAR HEMOGLOBIN: 25.1 pg
  MEAN CORPUSCULAR HEMOGLOBIN CONCENTRATION: 38.98 G/DL
  MEAN CORPUSCULAR VOLUME: 64.42 fL
  MONOCYTE: 1.33%
  NEUTROPHIL: 8.83%
  NUCLEATED RED BLOOD CELLS: 0 /100WBC
  PLATELET COUNT: 1118.17 x10E3/uL
  ALANINE AMINOTRANSFERASE: 55 u/L
  ALBUMIN: 4.15 G/DL
  ALKALINE PHOSPHATASE: 449.5 u/L
  ASPARTATE AMINOTRANSFERASE: 112.83 u/L
  BLOOD UREA NITROGEN: 17.33 mg/dL
  CARBON DIOXIDE: 29.5 mmol/L
  CHLORIDE: 101 MEQ/L
  CHOLESTEROL: 70 mg/dL
  CREATINE PHOSPHOKINASE: 1325.83 u/L
  CREATININE: 0.18 mg/dL
  GLUCOSE: 171.5 mg/dL
  LACTATE DEHYDROGENASE: 386 u/L
  LIPASE: 10 u/L
  PHOSPHORUS: 11.57 mg/dL
  POTASSIUM: 6.21 MEQ/L
  SODIUM: 141.65 MEQ/L
  TOTAL BILIRUBIN: 0.15 mg/dL
  TOTAL PROTEIN: 5.75 G/DL
  URIC ACID: 1.28 mg/dL
[2]
  ABSOLUTE BASOPHIL: 0 CELLS/uL
  ABSOLUTE EOSINOPHIL: 138.17 CELLS/uL
  ABSOLUTE LYMPHOCYTE: 13283.17 CELLS/uL
  ABSOLUTE MONOCYTE: 303.83 CELLS/uL
  ABSOLUTE SEGMENTED NEUTROPHIL: 1308.17 CELLS/uL
  BASOPHIL: 0%
  EOSINOPHIL: 1%
  ERYTHROCYTE COUNT: 5.32 x10E6/uL
  HEMATOCRIT: 33.8%
  HEMOGLOBIN: 13.63 G/DL
  LEUKOCYTE COUNT: 15.03 x10E3/uL
  LYMPHOCYTE: 88.33%
  MEAN CORPUSCULAR HEMOGLOBIN: 25.68 pg
  MEAN CORPUSCULAR HEMOGLOBIN CONCENTRATION: 40.35 G/DL
  MEAN CORPUSCULAR VOLUME: 63.67 fL
  MONOCYTE: 1.83%
  NEUTROPHIL: 8.83%
  NUCLEATED RED BLOOD CELLS: 0 /100WBC
  PLATELET COUNT: 1097.5 x10E3/uL
  ALANINE AMINOTRANSFERASE: 54.5 u/L
  ALBUMIN: 4.27 G/DL
  ALKALINE PHOSPHATASE: 337 u/L
  ASPARTATE AMINOTRANSFERASE: 94.67 u/L
  BLOOD UREA NITROGEN: 17 mg/dL
  CARBON DIOXIDE: 28.33 mmol/L
  CHLORIDE: 101.5 MEQ/L
  CHOLESTEROL: 71.33 mg/dL
  CREATINE PHOSPHOKINASE: 628.17 u/L
  CREATININE: 0.19 mg/dL
  GLUCOSE: 177.83 mg/dL
  LACTATE DEHYDROGENASE: 500.5 u/L
  LIPASE: 9.5 u/L
  PHOSPHORUS: 12.3 mg/dL
  POTASSIUM: 5.63 MEQ/L
  SODIUM: 143.03 MEQ/L
  TOTAL BILIRUBIN: 0.2 mg/dL
  TOTAL PROTEIN: 6.02 G/DL
  URIC ACID: 1.5 mg/dL
[3]
  ABSOLUTE BASOPHIL: 0 CELLS/uL
  ABSOLUTE EOSINOPHIL: 76.67 CELLS/uL
  ABSOLUTE LYMPHOCYTE: 12148 CELLS/uL
  ABSOLUTE MONOCYTE: 38.33 CELLS/uL
  ABSOLUTE SEGMENTED NEUTROPHIL: 870.33 CELLS/uL
  BASOPHIL: 0%
  EOSINOPHIL: 0.67%
  ERYTHROCYTE COUNT: 5.1 x10E6/uL
  HEMATOCRIT: 32.07%
  HEMOGLOBIN: 13.3 G/DL
  LEUKOCYTE COUNT: 13.13 x10E3/uL
  LYMPHOCYTE: 92%
  MEAN CORPUSCULAR HEMOGLOBIN: 26.1 pg
  MEAN CORPUSCULAR HEMOGLOBIN CONCENTRATION: 41.47 G/DL
  MEAN CORPUSCULAR VOLUME: 62.87 fL
  MONOCYTE: 0.33%
  NEUTROPHIL: 7%
  NUCLEATED RED BLOOD CELLS: 0 /100WBC
  PLATELET COUNT: 1283 x10E3/uL
  ALANINE AMINOTRANSFERASE: 58 u/L
  ALBUMIN: 4.13 G/DL
  ALKALINE PHOSPHATASE: 363.33 u/L
  ASPARTATE AMINOTRANSFERASE: 110.33 u/L
  BLOOD UREA NITROGEN: 16.33 mg/dL
  CARBON DIOXIDE: 26.33 mmol/L
  CHLORIDE: 102.67 MEQ/L
  CHOLESTEROL: 70.67 mg/dL
  CREATINE PHOSPHOKINASE: 1302.67 u/L
  CREATININE: 0.14 mg/dL
  GLUCOSE: 164 mg/dL
  LACTATE DEHYDROGENASE: 334.67 u/L
  LIPASE: 9.67 u/L
  PHOSPHORUS: 13.07 mg/dL
  POTASSIUM: 5.93 MEQ/L
  SODIUM: 144.23 MEQ/L
  TOTAL BILIRUBIN: 0.1 mg/dL
  TOTAL PROTEIN: 5.53 G/DL
  URIC ACID: 1.57 mg/dL
